Assay results from US6482603B1, “Method of detecting drug-receptor and protein-protein interactions” (Yale University, priority 1998, dated 2002).

Assays:
[1] = test system: yeast expressing the Sec-1 G protein gamma subunit fusion and syntaxin; test: growth inhibition assay (halo assay); type: cell-based, Saccharomyces cerevisiae; settings: filter disks containing 5 or 15 μg of α-factor; strain MHY6; documented after 2 days at 30° C.
Protocol: (§1) Standard methods for the growth, maintenance, and transformation of yeast and bacteria, and for the manipulation of DNA, were used throughout (Ausubel et al. 1987, Current Protocols in Molecular Biology. Wiley-Interscience, New York). The Escherichia coli strain DH5α was used for the maintenance of plasmids. Yeast cells were grown in synthetic medium supplemented with amino acids, adenine and 2% glucose (SCD) or 2% galactose plus 0.2% sucrose (SCG); tryptophan and/or uracil were omitted to maintain selection for plasmids. The Saccharomyces cerevisiae strain used in this study was MHY6 (from Jeremy Thomer) (MATa ura3-52 lys2-801^am ade2-101^oc trp1-Δ63 his3-Δ200 leu2-Δ1 ste18Δ::LEU2) (derived from Sikorski et al. (1989) Genetics 122(1):19-27).
(§2) To evaluate to the interactions of the Sec-1 G protein gamma subunit fusion and syntaxin, a growth inhibition assay (halo assay) was carried out by diluting 50 μL from an overnight culture grown at 30° C. in selective media with 2 mL sterile water, followed by the addition of an equal volume of 1% (w/v) dissolved agar (55° C.) and poured onto a culture dish of SCD-Trp-Ura or SCG-Trp-Ura medium. Sterile filter discs were spotted with 5 μg or 15 μg of synthetic α-factor pheromone and placed onto the nascent lawn to induce growth arrest. The resulting zone of growth-arrested cells was documented after 2 days at 30° C. […]

[2] = test system: control cells which express the Sec-1 G protein gamma fusion alone and cells which express syntaxin alone; test: growth inhibition assay (halo assay), control cells; type: cell-based, Saccharomyces cerevisiae; settings: upon pheromone addition, filter disks with 5 or 15 μg, 2 days at 30° C.
Protocol: as §1, §2

Substance: α-factor
- α-factor induced growth arrest (zone of inhibition around filter paper disks) [1]: no zone of inhibition
- pheromone induced growth arrest [2]: growth arrest
